In ChEMBL document CHEMBL4316616, “Efficacy of TLR7 agonistic imidazoquinoline as immunochemotherapeutic agent against P. Berghei ANKA infected rodent host” (Bioorg Med Chem Lett, 2019) one finds Activity data, which are given here for one compound.

Activity calls are given as the source filed them. No cut-off for these calls is given here.

Experiment [1] relates to Plasmodium berghei. Nature of the experiment: Antiparasitic activity against Plasmodium berghei ANKA infected in Laca mouse assessed as increase in serum IL-10 level at 10 ug, ip co-administered with chloroquine for 4 days measured on day 10 by sandwich ELISA. The format is functional, organism-based. For orientation: An ELISA detects its analyte on a solid surface through an enzyme-linked reagent.

In experiment [2] the test system is Plasmodium berghei. Nature of the experiment: Antiparasitic activity against Plasmodium berghei ANKA infected in Laca mouse assessed as decrease in Treg cell level in brain at 10 ug, ip co-administered with chloroquine for 4 days measured on day 10 by flow cytometry. Background: In flow cytometry, cells or beads pass a laser one at a time.
The test system of experiment [3] is Plasmodium berghei. Nature of the experiment: Antiparasitic activity against Plasmodium berghei ANKA infected in Laca mouse assessed as decrease in serum TNFalpha level at 10 ug, ip co-administered with chloroquine for 4 days measured on day 10 by sandwich ELISA. The format is functional, organism-based.
For experiment [4], the system named is Plasmodium berghei. The experiment in a line: Antiparasitic activity against Plasmodium berghei ANKA infected in Laca mouse assessed as reduction in CD3+ cell level in brain at 10 ug, ip co-administered with chloroquine for 4 days measured on day 21 by flow cytometry. The class given is functional, organism-based.
The test system of experiment [5] is Plasmodium berghei. The experiment in a line: Antiparasitic activity against Plasmodium berghei ANKA infected in Laca mouse assessed as increase in IFN-gamma level in serum at 10 ug, ip co-administered with chloroquine for 4 days measured on day 10 by sandwich ELISA.
Experiment [6] has as its system Plasmodium berghei. The experiment in a line: Antiparasitic activity against Plasmodium berghei ANKA infected in Laca mouse assessed as increase in serum IL-10 level at 10 ug, ip administered for 4 days measured on day 10 by sandwich ELISA. The format is functional, organism-based.
Experiment [7] relates to Plasmodium berghei. Nature of the experiment: Antiparasitic activity against Plasmodium berghei ANKA infected in Laca mouse assessed as increase in serum IL-27 level at 10 ug, ip administered for 4 days measured on day 10 by sandwich ELISA. The format is functional, organism-based.
Experiment [8] relates to Plasmodium berghei. Nature of the experiment: Antiparasitic activity against Plasmodium berghei ANKA infected in Laca mouse assessed as increase in serum IL-12 level at 10 ug, ip administered for 4 days measured on day 10 by sandwich ELISA. The format is functional, organism-based.
Experiment [9] has as its system Plasmodium berghei. The experiment in a line: Antiparasitic activity against Plasmodium berghei ANKA infected in Laca mouse assessed as increase in IFN-gamma level in serum at 10 ug, ip administered for 4 days measured on day 10 by sandwich ELISA.

As for `CCCCc1nc2c(N)nc3ccccc3c2n1Cc1ccccc1`, the outcome in the experiment on Plasmodium berghei [1], with Plasmodium berghei [2], with Plasmodium berghei [3], in the experiment on Plasmodium berghei [5], in the experiment with Plasmodium berghei [6] and in the experiment on Plasmodium berghei [7] was Active. For the same compound, the result in the experiment on Plasmodium berghei [8] and with Plasmodium berghei [9] was Active. Moreover, the result in the experiment on Plasmodium berghei [4] was inactive.
